US12410171B2, “Tropomyosin receptor kinase (TRK) degradation compounds and methods of use” (Cullgen (Shanghai), Inc., priority 2020, dated 2025)

target: T1, TPM3-TRKA fusion protein (Homo sapiens, UniProt P04629); assay: TPM3-TRKA fusion protein levels in KM12 cells (Western blot); type: cell-based; settings: 16 h; TPM3-TRKA degradation in KM12 cells at 10 nM compound, category of percentage degradation; read-out: Degradation (at 10 nM)
T1 construct: The resulted chimeric proteins always retain the kinase domain of TRK proteins; TPM3 (fusion partner, N-terminal part of tropomyosin alpha-3, P06753); endogenous in cells; host or cells: KM12 colon cancer cells; the other entry of the earlier key: TPM3 (P06753, Tropomyosin alpha-3 chain)
Summary of the method: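 KM12 colon cancer cells were treated with DMSO or compounds at 0.1–100 nM, 0.4–30 nM or other stated concentrations for 4, 8–16 or 16 h. RIPA lysates were BCA-normalized and resolved by SDS-PAGE. TPM3-TRKA was detected by chemiluminescent Western blot, with bands quantified by densitometry.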

T1 sequence (P04629 with tags, fused parts or gaps): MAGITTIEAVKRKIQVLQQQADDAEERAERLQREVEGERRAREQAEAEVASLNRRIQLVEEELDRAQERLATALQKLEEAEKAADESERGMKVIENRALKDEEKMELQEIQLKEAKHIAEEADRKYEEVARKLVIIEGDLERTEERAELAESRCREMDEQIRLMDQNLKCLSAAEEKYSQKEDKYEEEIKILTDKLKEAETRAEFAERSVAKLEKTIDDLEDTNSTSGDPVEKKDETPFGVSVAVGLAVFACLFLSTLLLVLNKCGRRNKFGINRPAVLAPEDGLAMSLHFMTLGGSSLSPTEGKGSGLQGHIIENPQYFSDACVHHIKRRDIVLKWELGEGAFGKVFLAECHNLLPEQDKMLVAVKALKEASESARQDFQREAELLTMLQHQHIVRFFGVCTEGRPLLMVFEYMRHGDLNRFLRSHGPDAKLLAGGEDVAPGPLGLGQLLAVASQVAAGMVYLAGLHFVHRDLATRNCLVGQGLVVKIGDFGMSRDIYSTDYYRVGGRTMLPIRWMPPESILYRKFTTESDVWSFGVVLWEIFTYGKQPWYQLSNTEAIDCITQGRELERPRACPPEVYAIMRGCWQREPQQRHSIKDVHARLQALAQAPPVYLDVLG

SMILES	percent degradation of TPM3-TRKA protein at 0.01 µM
O=C(CN1CCN(c2cccc(-c3cnc4ccc(N5CCC[C@@H]5c5cccc(F)c5)nn34)n2)CC1)NCCOCCOCCOCCOCCOCCNc1cccc2c1C(=O)N(C1CCC(=O)NC1=O)C2=O (stereo partly drawn) [TR-104, N-(17-((2-(2,6-dioxopiperidin-3-yl)-1,3-dioxoisoindolin-4-yl)amino)-3,6,9,12,15-pentaoxaheptadecyl)-2-(4-(6-(6-((R)-2-(3-fluorophenyl)pyrrolidin-1-yl)imidazo[1,2-b]pyridazin-3-yl)pyridin-2-yl)piperazin-1-yl)acetamide]	> 80%
O=C(CN1CCN(c2cccc(-c3cnc4ccc(N5CCC[C@@H]5c5cccc(F)c5)nn34)n2)CC1)NCCOCCOCCNc1cccc2c1C(=O)N(C1CCC(=O)NC1=O)C2=O (stereo partly drawn) [TR-105, N-(2-(2-(2-((2-(2,6-dioxopiperidin-3-yl)-1,3-dioxoisoindolin-4-yl)amino)ethoxy)ethoxy)ethyl)-2-(4-(6-(6-((R)-2-(3-fluorophenyl)pyrrolidin-1-yl)imidazo[1,2-b]pyridazin-3-yl)pyridin-2-yl)piperazin-1-yl)acetamide]	> 80%
O=C(CN1CCN(c2cccc(-c3cnc4ccc(N5CCC[C@@H]5c5cccc(F)c5)nn34)n2)CC1)NCCCCNc1cccc2c1C(=O)N(C1CCC(=O)NC1=O)C2=O (stereo partly drawn) [TR-107, N-(4-((2-(2,6-dioxopiperidin-3-yl)-1,3-dioxoisoindolin-4-yl)amino)butyl)-2-(4-(6-(6-((R)-2-(3-fluorophenyl)pyrrolidin-1-yl)imidazo[1,2-b]pyridazin-3-yl)pyridin-2-yl)piperazin-1-yl)acetamide]	> 80%
O=C(CN1CCN(c2cccc(-c3cnc4ccc(N5CCC[C@@H]5c5cccc(F)c5)nn34)n2)CC1)NCCOCCOCCOCCOCCNc1cccc2c1C(=O)N(C1CCC(=O)NC1=O)C2=O (stereo partly drawn) [TR-108, N-(14-((2-(2,6-dioxopiperidin-3-yl)-1,3-dioxoisoindolin-4-yl)amino)-3,6,9,12-tetraoxatetradecyl)-2-(4-(6-(6-((R)-2-(3-fluorophenyl)pyrrolidin-1-yl)imidazo[1,2-b]pyridazin-3-yl)pyridin-2-yl)piperazin-1-yl)acetamide]	> 80%
O=C(CN1CCN(c2cccc(-c3cnc4ccc(N5CCC[C@@H]5c5cccc(F)c5)nn34)n2)CC1)NCCCNc1cccc2c1C(=O)N(C1CCC(=O)NC1=O)C2=O (stereo partly drawn) [TR-109, N-(3-((2-(2,6-dioxopiperidin-3-yl)-1,3-dioxoisoindolin-4-yl)amino)propyl)-2-(4-(6-(6-((R)-2-(3-fluorophenyl)pyrrolidin-1-yl)imidazo[1,2-b]pyridazin-3-yl)pyridin-2-yl)piperazin-1-yl)acetamide]	> 80%
O=C1CCC(N2C(=O)c3ccc(NCCOCCOCCC(=O)N4CCN(c5cccc(-c6cnc7ccc(N8CCC[C@@H]8c8cccc(F)c8)nn67)n5)CC4)cc3C2=O)C(=O)N1 (stereo partly drawn) [TR-113, 2-(2,6-Dioxopiperidin-3-yl)-5-((2-(2-(3-(4-(6-(6-((R)-2˜ (3-fluorophenyl)pyrrolidin-1-yl)imidazo[1,2-b]pyridazin-3-yl)pyridin-2-yl)piperazin-1-yl)-3-oxopropoxy)ethoxy)ethyl)amino) isoindoline-1,3-dione]	> 80%
O=C1CCC(N2C(=O)c3ccc(NCCOCCOCCOCCOCCOCCC(=O)N4CCN(c5cccc(-c6cnc7ccc(N8CCC[C@@H]8c8cccc(F)c8)nn67)n5)CC4)cc3C2=O)C(=O)N1 (stereo partly shown) [TR-116]	> 80%
O=C1CCC(N2C(=O)c3ccc(NCCCCCCC(=O)N4CCN(c5cccc(-c6cnc7ccc(N8CCC[C@@H]8c8cccc(F)c8)nn67)n5)CC4)cc3C2=O)C(=O)N1 (stereo partly drawn) [TR-117, 2-(2,6-Dioxopiperidin-3-yl)-5-((7-(4-(6-(6-((R)-2-(3-fluorophenyl)pyrrolidin-1-yl)imidazo[1,2-b]pyridazin-3-yl)pyridin-2-yl)piperazin-1-yl)-7-oxoheptyl)amino) isoindoline-1,3-dione]	> 80%
O=C1CCC(N2C(=O)c3ccc(NCCCCCCCC(=O)N4CCN(c5cccc(-c6cnc7ccc(N8CCC[C@@H]8c8cccc(F)c8)nn67)n5)CC4)cc3C2=O)C(=O)N1 (stereo partly drawn) [TR-118, 2-(2,6-Dioxopiperidin-3-yl)-5-((8-(4-(6-(6-((R)-2-(3-fluorophenyl)pyrrolidin-1-yl)imidazo[1,2-b]pyridazin-3-yl)pyridin-2-yl)piperazin-1-yl)-8-oxooctyl)amino) isoindoline-1,3-dione]	> 80%
O=C1CCC(N2C(=O)c3ccc(NCCOCCC(=O)N4CCN(c5cccc(-c6cnc7ccc(N8CCC[C@@H]8c8cccc(F)c8)nn67)n5)CC4)cc3C2=O)C(=O)N1 (stereo partly drawn) [TR-119, 2-(2,6-Dioxopiperidin-3-yl)-5-((2-(3-(4-(6-(6-((R)-2-(3-fluorophenyl)pyrrolidin-1-yl)imidazo[1,2-b]pyridazin-3-yl)pyridin-2-yl)piperazin-1-yl)-3-oxopropoxy)ethyl)amino) isoindoline-1,3-dione]	> 80%
O=C1CCC(N2C(=O)c3ccc(NCCOCCOCCOCCOCCC(=O)N4CCN(c5cccc(-c6cnc7ccc(N8CCC[C@@H]8c8cccc(F)c8)nn67)n5)CC4)cc3C2=O)C(=O)N1 (stereo partly drawn) [TR-120, 2-(2,6-Dioxopiperidin-3-yl)-5-((15-(4-(6-(6-((R)-2-(3-fluorophenyl)pyrrolidin-1-yl)imidazo[1,2-6]pyridazin-3-yl)pyridin-2-yl)piperazin-1-yl)-15-oxo-3,6,9,12-tetraoxapentadecyl)amino) isoindoline-1,3-dione]	> 80%
O=C1CCC(N2C(=O)c3ccc(NCCC(=O)N4CCN(c5cccc(-c6cnc7ccc(N8CCC[C@@H]8c8cccc(F)c8)nn67)n5)CC4)cc3C2=O)C(=O)N1 (stereo partly drawn) [TR-121, 2-(2,6-Dioxopiperidin-3-yl)-5-((3-(4-(6-(6-((R)-2-(3-fluorophenyl)pyrrolidin-1-yl)imidazo[1,2-b]pyridazin-3-yl)pyridin-2-yl)piperazin-1-yl)-3-oxopropyl)amino) isoindoline-1,3-dione]	> 80%
O=C1CCC(N2C(=O)c3ccc(NCCCCCC(=O)N4CCN(c5cccc(-c6cnc7ccc(N8CCC[C@@H]8c8cccc(F)c8)nn67)n5)CC4)cc3C2=O)C(=O)N1 (stereo partly drawn) [TR-122, 2-(2,6-Dioxopiperidin-3-yl)-5-((6-(4-(6-(6-((R)-2-(3-fluorophenyl)pyrrolidin-1-yl)imidazo[1,2-b]pyridazin-3-yl)pyridin-2-yl)piperazin-1-yl)-6-oxohexyl)amino) isoindoline-1,3-dione]	> 80%

Continued, values first:

percent degradation of TPM3-TRKA protein at 0.01 µM	SMILES
> 80%	O=C(CN1CCN(c2cccc(-c3cnc4ccc(N5CCC[C@@H]5c5cccc(F)c5)nn34)n2)CC1)NCCNc1cccc2c1C(=O)N(C1CCC(=O)NC1=O)C2=O (stereo partly drawn) [CPD-060, N-(2-((2˜ (2,6-Dioxopiperidin-3-yl)-1,3-dioxoisoindolin-4-yl)amino)ethyl)-2-(4-(6-(6-((R)-2-(3-fluorophenyl)pyrrolidin-1-yl)imidazo[1,2-b]pyridazin-3-yl)pyridin-2-yl)piperazin-1-yl)acetamide]
< 50%	Cc1ncsc1-c1ccc(CNC(=O)[C@@H]2C[C@@H](O)CN2C(=O)[C@@H](NC(=O)CCCCCCCNC(=O)CN2CCN(c3ccc(C(=O)Nc4n[nH]c5ccc(Cc6cc(F)cc(F)c6)cc45)c(NC4CCOCC4)c3)CC2)C(C)(C)C)cc1 [CPD-061, (2S,4R)-1-((S)-2-(8-(2-(4-(4-((5-(3,5-Difluorobenzyl)-1H-indazol-3-yl)carbamoyl)-3-((tetrahydro-2H-pyran-4-yl)amino)phenyl)piperazin-1-yl)acetamido)octanamido)-3,3-dimethylbutanoyl)-4-hydroxy-N-(4-(4-methylthiazol-5-yl)benzyl)pyrrolidine-2-carboxamide]
> 80%	O=C(CN1CCN(c2ccc(C(=O)Nc3n[nH]c4ccc(Cc5cc(F)cc(F)c5)cc34)c(NC3CCOCC3)c2)CC1)NCCNc1cccc2c1C(=O)N(C1CCC(=O)NC1=O)C2=O (stereo not shown) [CPD-062, N-(5-(3,5-Difluorobenzyl)-1H-indazol-3-yl)-4-(4-(2-((2-((2-(2,6-dioxopiperidin-3-yl)-1,3-dioxoisoindolin-4-yl)amino)ethyl)amino)-2-oxoethyl)piperazin-1-yl)-2-((tetrahydro-2H-pyran-4-yl)amino)benzamide]
> 80%	O=C(CN1CCN(c2ccc(C(=O)Nc3n[nH]c4ccc(Cc5cc(F)cc(F)c5)cc34)c(NC3CCOCC3)c2)CC1)NCCOCCOCCOCCNc1cccc2c1C(=O)N(C1CCC(=O)NC1=O)C2=O (stereo not drawn) [CPD-064, N—(S-(3,5-Difluorobenzyl)-1H-indazol-3-yl)-4-(4-(14-((2-(2,6-dioxopiperidin-3-yl)-1,3-dioxoisoindolin-4-yl)amino)-2-oxo-6,9,12-trioxa-3-azatetradecyl)piperazin-1-yl)-2-((tetrahydro-2H-pyran-4-yl)amino)benzamide]
> 80%	O=C(CN1CCN(c2ccc(C(=O)Nc3n[nH]c4ccc(Cc5cc(F)cc(F)c5)cc34)c(NC3CCOCC3)c2)CC1)NCCOCCOCCOCCOCCOCCNc1cccc2c1C(=O)N(C1CCC(=O)NC1=O)C2=O (stereo not shown) [CPD-065, N-(5-(3,5-Difluorobenzyl)-1H-indazol-3-yl)-4-(4-(20-((2-(2,6-dioxopiperidin-3-yl)-1,3-dioxoisoindolin-4-yl)amino)-2-oxo-6,9,12,15,18-pentaoxa-3-azaicosyl)piperazin-1-yl)-2-((tetrahydro-2H-pyran-4-yl)amino)benzamide]

same assay, conditions: KM12 cells, 100 nM, indicated incubation time, Western blot (FIG. 2)

TPM3-TRKA protein levels	SMILES
rapidly reduced TPM3-TRKA protein levels	O=C(CN1CCN(c2cccc(-c3cnc4ccc(N5CCC[C@@H]5c5cccc(F)c5)nn34)n2)CC1)NCCNc1cccc2c1C(=O)N(C1CCC(=O)NC1=O)C2=O (stereo partly drawn) [CPD-060, N-(2-((2˜ (2,6-Dioxopiperidin-3-yl)-1,3-dioxoisoindolin-4-yl)amino)ethyl)-2-(4-(6-(6-((R)-2-(3-fluorophenyl)pyrrolidin-1-yl)imidazo[1,2-b]pyridazin-3-yl)pyridin-2-yl)piperazin-1-yl)acetamide]
